In patent US6060608A, “Analogs of CC-1065 and the duocarmycins” (The Scripps Research Institute, priority 1999, dated 2000):
Read-outs that look alike come from different tables or passages of the source.

Test system: w794 duplex DNA
Assay: DNA alkylation selectivity and efficiency within w794 DNA, thermally-induced strand cleavage and PAGE
Type: biochemical, SV40
Conditions: for DNA alkylation efficiency, natural/unnatural enantiomer ratio: (+)/ent-(-)
From the text: DNA Alkylation Selectivity and Efficiency. The DNA alkylation properties of the agents were examined within w794 duplex DNA, a 144 base-pair segment of duplex DNA for which comparative results are available for related agents. The alkylation site identification and the assessment of the relative selectivity among the available sites were obtained by thermally-induced strand cleavage of the singly 5' end-labeled duplex DNA after exposure to the agents. Following treatment of the end-labeled duplex DNA with a range of agent concentrations, the unbound agent was removed by EtOH precipitation of the DNA. Redissolution of the DNA in aqueous buffer, thermolysis (100° C., 30 min) to induce strand cleavage at the sites of DNA alkylation, denaturing high resolution polyacrylamide gel electrophoresis (PAGE) adjacent to Sanger dideoxynucleotide sequencing standards, and autoradiography led to identification of the DNA cleavage and alkylation sites. The DNA alkylation reaction selectivities observed under the incubation conditions for the agents detailed herein have proven identical to the alkylation selectivities observed with shorter or extended reaction periods or when the reactions were conducted at different temperatures (37 or 4° C., 0.5-7 d). As discussed below, the rates and efficiencies but not final relative efficiencies of DNA alkylation were altered by changing the reaction temperatures.
DNA Alkylation Properties. […] The DNA alkylation reaction was examined within w794 DNA for which comparative results are available for past agents. The alkylation site identification was obtained by thermal strand cleavage of the singly 5' end-labeled duplex DNA after exposure to the agents. Following treatment of the labeled DNA with a range of agent concentrations, the unbound agent was removed by EtOH precipitation of the DNA. Redissolution of the DNA in aqueous buffer, thermolysis at 100° C. (30 min) to induce depurination and strand cleavage at the adenine N3 or guanine N3 minor groove alkylation sites, denaturing high resolution PAGE adjacent to Sanger sequencing standards and autoradiography provided the DNA cleavage and alkylation sites.
DNA Alkylation Studies: selectivity and Efficiency. General procedures, the preparation of singly ^32 P 5' end-labeled double stranded DNA, the agent binding studies, gel electrophoresis, and autoradiography were conducted according to standard procedures. Eppendorf tubes containing the 5' end-labeled DNA (9 μL) in TE buffer (10 mM Tris, 1 mM EDTA, pH 7.5) were treated with the agent in DMSO (1 μL at the specified concentration). The solution was mixed by vortexing and brief centrifugation and subsequently incubated at 4 or 25° C. for 24 h (natural enantiomers) and 25 or 37° C. (unnatural enantiomers) for 72 h. The covalently modified DNA was separated from unbound agent by EtOH precipitation and resuspended in TE buffer (10 μL). The solution of DNA in an Eppendorf tube sealed with parafilm was warmed at 100° C. for 30 min to induce cleavage at the alkylation sites, allowed to cool to 25° C. and centrifuged. Formamide dye (0.03% xylene cyanol FF, 0.03% bromophenol blue, 8.7% Na2 EDTA 250 mM) was added (5 μL) to the supernatant. Prior to electrophoresis, the sample was denatured by warming at 100° C. for 5 min, placed in an icebath, and centrifuged, and the supernatant (3 μL) was loaded directly onto the gel. Sanger dideoxynucleotide sequencing reactions were run as standards adjacent to the reaction samples. Polyacrylamide gel electrophoresis (PAGE) was run on an 8% sequencing gel under denaturing conditions (8 M urea) in TBE buffer (100 mM Tris, 100 mM boric acid, 0.2 mM Na2 EDTA) followed by autoradiography.
DNA Alkylation of w794 DNA. Eppendorf tubes containing the 5'-end labeled DNA (9 μL) in TE buffer (10 mM Tris, 1 mM EDTA, pH 7.2) were treated with the agent in DMSO (1 μL at the specified concentration). […]

CC(C)(C)OC(=O)N1CC2CC23C1=CC(=O)c1ccccc13 (single isomer, unassigned; (+)) [(+)-N-BOC-CBI, reference compound]
DNA alkylation efficiency, natural/unnatural enantiomer ratio: 5-10 ×

COc1cc2cc(C(=O)N3C[C@@H]4C[C@]45C3=CC(=O)c3ccc(C#N)cc35)[nH]c2c(OC)c1OC [ent-(-)-CCBI-TMI (35)]
DNA alkylation properties, comparison in words: nearly indistinguishable | DNA alkylation properties, comparison in words (listed as (-)-CCBI-TMI): (-)-CCBI-indole2 >(-)-CCBI-CDPI1>(-)-CCBI-TMI

COc1ccc2c(c1)C13CC1CN(C(=O)OC(C)(C)C)C3=CC2=O (single isomer, unassigned; (+)) [(+)-N-BOC-MCBI, reference compound]
DNA alkylation efficiency, natural/unnatural enantiomer ratio: 1-2 ×

COc1cc2cc(C(=O)N3CC4C(F)(F)C45C3=CC(=O)c3ccccc35)[nH]c2c(OC)c1OC (racemic) [compound 224]
DNA alkylation properties, comparison in words: steadily increase as the temperature was decreased from 37 to 25 to 4 °C | DNA alkylation sequence selectivity (listed as F2 CBI-TMI): only adenine N3 alkylation was detected | DNA alkylation less efficient than CBI-TMI (racemic): 100-1000 × | DNA alkylation less efficient, by densitometry, average of several comparisons (racemic F2 CBI-TMI versus (+)-CBI-TMI): 675-725 ×

COC(=O)c1cc2c([nH]1)C(=O)C=C1N(C(=O)c3cc4cc(OC)c(OC)c(OC)c4[nH]3)CC3CC123 (single isomer, unassigned) [ent-(-)-duocarmycin SA (2), reference compound]
DNA alkylation properties, comparison in words: slightly more effective

N#Cc1ccc2c(c1)[C@]13C[C@H]1CN(C(=O)c1cc4c5c(ccc4[nH]1)N(C(N)=O)CC5)C3=CC2=O [(-)-CCBI-CDPI1]
DNA alkylation properties, comparison in words: (-)-CCBI-indole2 >(-)-CCBI-CDPI1>(-)-CCBI-TMI

N#Cc1ccc2c(c1)[C@]13C[C@H]1CN(C(=O)c1cc4cc(NC(=O)c5cc6ccccc6[nH]5)ccc4[nH]1)C3=CC2=O [(-)-CCBI-indole2]
DNA alkylation properties, comparison in words: (-)-CCBI-indole2 >(-)-CCBI-CDPI1>(-)-CCBI-TMI

CC(C)(C)OC(=O)N1C[C@H]2C[C@@]23C1=CC(=O)c1ccc(C#N)cc13 [(+)-N-BOC-CCBI, N-(tert-Butyloxycarbonyl)-7-cyano-1,2,9,9a-tetrahydrocyclopropa[c]benz[e]indol-4-one]
DNA alkylation efficiency, natural/unnatural enantiomer ratio: 1-2 ×

COc1cc2cc(C(=O)N3C[C@H]4C[C@@]45C3=CC(=O)c3ccc(C#N)cc35)[nH]c2c(OC)c1OC [(+)-CCBI-TMI (35)]
DNA alkylation properties, comparison in words: exhibited the same selectivity and efficiency of DNA alkylation | concentration of detectable alkylation of high affinity site 5'-AATTA (25° C., 24 h): 10^-6 to 10^-7 M

CCOC(=O)C(=O)N1CC(CCl)c2c1cc(O)c1ccccc21 (stereo not shown) [compound 114, 1-Chloromethyl-3-(2-ethoxy-1,2-dioxoethyl)-5-hydroxy-1,2-dihydro-3H-benz[e]indole]
DNA alkylation properties, comparison in words: more effective

N#Cc1ccc2c(c1)C13CC1CN(C(=O)c1cc4c5c(ccc4[nH]1)N(C(N)=O)CC5)C3=CC2=O (single isomer, unassigned) [compound 39]
DNA alkylation sequence selectivity: strong preference but not absolute requirement for the fourth 5' base to be A or T versus G or C
